Test results as given in PubChem BioAssay (NCI).
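Compound exposure: 48 hours, 5 concentrations, 96-well plates. TGI marks complete inhibition of growth.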

How the values were obtained:
Test in all cases: growth of human tumour cells (NCI), 48 h
RXF 393 renal = tested on: RXF 393 renal
K-562 leukemia = tested on: K-562 leukemia
BT-549 breast = tested on: BT-549 breast
OVCAR-3 ovarian = tested on: OVCAR-3 ovarian
SK-MEL-28 melanoma = tested on: SK-MEL-28 melanoma
HS 578T breast = tested on: HS 578T breast
UO-31 renal = tested on: UO-31 renal
SK-OV-3 ovarian = tested on: SK-OV-3 ovarian
SW-620 colon = tested on: SW-620 colon
NCI/ADR-RES ovarian = tested on: NCI/ADR-RES ovarian
ACHN renal = tested on: ACHN renal
HCT-15 colon = tested on: HCT-15 colon
786-0 renal = tested on: 786-0 renal
SF-268 CNS = tested on: SF-268 CNS
NCI-H23 lung = tested on: NCI-H23 lung
OVCAR-4 ovarian = tested on: OVCAR-4 ovarian
PC-3 prostate = tested on: PC-3 prostate
IGROV1 ovarian = tested on: IGROV1 ovarian
OVCAR-5 ovarian = tested on: OVCAR-5 ovarian
CAKI-1 renal = tested on: CAKI-1 renal
SK-MEL-5 melanoma = tested on: SK-MEL-5 melanoma
MDA-N = tested on: MDA-N
DU-145 prostate = tested on: DU-145 prostate
MDA-MB-231 breast = tested on: MDA-MB-231 breast
MOLT-4 leukemia = tested on: MOLT-4 leukemia
RPMI-8226 leukemia = tested on: RPMI-8226 leukemia
UACC-257 melanoma = tested on: UACC-257 melanoma
KM12 colon = tested on: KM12 colon
MDA-MB-435 = tested on: MDA-MB-435
NCI-H460 lung = tested on: NCI-H460 lung
HT29 colon = tested on: HT29 colon
A549 NSCLC = tested on: A549 NSCLC
OVCAR-8 ovarian = tested on: OVCAR-8 ovarian
HOP-62 NSCLC = tested on: HOP-62 NSCLC
NCI-H522 lung = tested on: NCI-H522 lung
HCT-116 colon = tested on: HCT-116 colon
UACC-62 melanoma = tested on: UACC-62 melanoma
SNB-75 CNS = tested on: SNB-75 CNS
U251 CNS = tested on: U251 CNS
NCI-H226 lung = tested on: NCI-H226 lung
COLO 205 colon = tested on: COLO 205 colon
MCF7 breast = tested on: MCF7 breast
SF-539 CNS = tested on: SF-539 CNS
SR leukemia = tested on: SR leukemia
SK-MEL-2 melanoma = tested on: SK-MEL-2 melanoma
CCRF-CEM leukemia = tested on: CCRF-CEM leukemia
SF-295 CNS = tested on: SF-295 CNS
SN12C renal = tested on: SN12C renal
HOP-92 NSCLC = tested on: HOP-92 NSCLC
M14 melanoma = tested on: M14 melanoma
SNB-19 CNS = tested on: SNB-19 CNS
HCC-2998 colon = tested on: HCC-2998 colon
EKVX NSCLC = tested on: EKVX NSCLC
MALME-3M melanoma = tested on: MALME-3M melanoma
A498 renal = tested on: A498 renal
HL-60(TB) leukemia = tested on: HL-60(TB) leukemia
TK-10 renal = tested on: TK-10 renal
LOX IMVI melanoma = tested on: LOX IMVI melanoma
T-47D breast = tested on: T-47D breast

FC(F)(F)c1cnc(N/N=C(/c2ccccc2)c2ccccn2)c(Cl)c1
TGI (RXF 393 renal): 32.5 µM | TGI (K-562 leukemia): > 100 µM | TGI (BT-549 breast): 29.8 µM | TGI (OVCAR-3 ovarian): 11.7 µM | TGI (SK-MEL-28 melanoma): > 100 µM | TGI (HS 578T breast): 26.9 µM | TGI (UO-31 renal): 21.7 µM | TGI (SK-OV-3 ovarian): 17.9 µM | TGI (SW-620 colon): > 100 µM | TGI (NCI/ADR-RES ovarian): 6.92 µM | TGI (ACHN renal): 13.2 µM | TGI (HCT-15 colon): 33.7 µM | TGI (786-0 renal): 17.9 µM | TGI (SF-268 CNS): 21.8 µM | TGI (NCI-H23 lung): 25.1 µM | TGI (OVCAR-4 ovarian): 24.8 µM | TGI (PC-3 prostate): 24.6 µM | TGI (IGROV1 ovarian): 11.5 µM | TGI (OVCAR-5 ovarian): 31.5 µM | TGI (CAKI-1 renal): 19.6 µM | TGI (SK-MEL-5 melanoma): 21.2 µM | TGI (MDA-N): > 100 µM | TGI (DU-145 prostate): 51.3 µM | TGI (MDA-MB-231 breast): 32 µM | TGI (MOLT-4 leukemia): > 100 µM | TGI (RPMI-8226 leukemia): > 100 µM | TGI (UACC-257 melanoma): 11.5 µM | TGI (KM12 colon): 26.3 µM | TGI (MDA-MB-435): > 100 µM | TGI (NCI-H460 lung): 10.5 µM | TGI (HT29 colon): 18.8 µM | TGI (A549 NSCLC): 14.8 µM | TGI (OVCAR-8 ovarian): 5.79 µM | TGI (HOP-62 NSCLC): 20.3 µM | TGI (NCI-H522 lung): 4.74 µM | TGI (HCT-116 colon): 12.1 µM | TGI (UACC-62 melanoma): 23.1 µM | TGI (SNB-75 CNS): 16 µM | TGI (U251 CNS): 30.4 µM | TGI (NCI-H226 lung): 50.4 µM | TGI (COLO 205 colon): 20.6 µM | TGI (MCF7 breast): 6.7 µM | TGI (SF-539 CNS): 14.4 µM | TGI (SR leukemia): 55.3 µM | TGI (SK-MEL-2 melanoma): 24.4 µM | TGI (CCRF-CEM leukemia): 17.6 µM | TGI (SF-295 CNS): 11 µM | TGI (SN12C renal): > 100 µM | TGI (HOP-92 NSCLC): 23.2 µM | TGI (M14 melanoma): 15.7 µM | TGI (SNB-19 CNS): 50.9 µM | TGI (HCC-2998 colon): 24.8 µM | TGI (EKVX NSCLC): 17.5 µM

NC(N)=N/N=C\c1c(-c2ccccc2)nc2sccn12
TGI (RXF 393 renal): 26.3 µM | TGI (K-562 leukemia): > 100 µM | TGI (SK-MEL-28 melanoma): 29.1 µM | TGI (HS 578T breast): 34.5 µM | TGI (UO-31 renal): 31.6 µM | TGI (SK-OV-3 ovarian): 33.2 µM | TGI (SW-620 colon): 28.1 µM | TGI (NCI/ADR-RES ovarian): 34.9 µM | TGI (MALME-3M melanoma): 30 µM | TGI (A498 renal): 33.6 µM | TGI (ACHN renal): 30.6 µM | TGI (HCT-15 colon): 29.8 µM | TGI (786-0 renal): 27.1 µM | TGI (SF-268 CNS): 29.9 µM | TGI (NCI-H23 lung): 25.4 µM | TGI (HL-60(TB) leukemia): 53.3 µM | TGI (OVCAR-4 ovarian): 29.5 µM | TGI (PC-3 prostate): 28.5 µM | TGI (IGROV1 ovarian): 27 µM | TGI (OVCAR-5 ovarian): 30.6 µM | TGI (TK-10 renal): 31.2 µM | TGI (LOX IMVI melanoma): 30.1 µM | TGI (CAKI-1 renal): 29.6 µM | TGI (SK-MEL-5 melanoma): 29.2 µM | TGI (MDA-N): 27.1 µM | TGI (DU-145 prostate): 33 µM | TGI (MDA-MB-231 breast): 27.3 µM | TGI (MOLT-4 leukemia): 51.7 µM | TGI (RPMI-8226 leukemia): 49 µM | TGI (UACC-257 melanoma): 26.3 µM | TGI (KM12 colon): 27.5 µM | TGI (MDA-MB-435): 29.2 µM | TGI (NCI-H460 lung): 29.7 µM | TGI (T-47D breast): 29.1 µM | TGI (HT29 colon): 28.6 µM | TGI (A549 NSCLC): 31.8 µM | TGI (OVCAR-8 ovarian): 30.9 µM | TGI (HOP-62 NSCLC): 29.1 µM | TGI (NCI-H522 lung): 24.6 µM | TGI (HCT-116 colon): 28.5 µM | TGI (UACC-62 melanoma): 29.4 µM | TGI (SNB-75 CNS): 24.8 µM | TGI (U251 CNS): 28.5 µM | TGI (NCI-H226 lung): 33.1 µM | TGI (COLO 205 colon): 24.6 µM | TGI (SF-539 CNS): 30.2 µM | TGI (SR leukemia): > 100 µM | TGI (SK-MEL-2 melanoma): 28.6 µM | TGI (CCRF-CEM leukemia): 73.3 µM | TGI (SF-295 CNS): 27.9 µM | TGI (SN12C renal): 28.8 µM | TGI (HOP-92 NSCLC): 27.4 µM | TGI (SNB-19 CNS): 27.3 µM | TGI (HCC-2998 colon): 16.8 µM | TGI (EKVX NSCLC): 28.1 µM
